In brackets after ≈: the same amount, converted by molar mass. Entries after “also recorded” stand apart in the source; their conditions may differ. Read-outs that look alike come from different tables or passages of the source.
How the values were obtained:
[1] = tested on: Helicobacter pylori [헬리코박터 파일로리]; assay: Paper disc growth inhibition zone, Helicobacter pylori; type: cell-based; conditions: for zone of inhibition at 5 µmol/disc: Helicobacter pylori, read-out: diameter of growth inhibition zone
[2] = tested on: food spoilage bacteria and pathogens [식품부패균 및 병원성균]; assay: Paper disc growth inhibition zone, food spoilage bacteria and pathogens (9 strains); type: cell-based; conditions: 5 μmol per disc, solid medium, 12-16 h at 37, 30 or 25 °C depending on strain
[3] = tested on: cells causing lung cancer or stomach cancer [폐암이나 위암을 일으키는 세포]; conditions: background statement; cited from earlier work
[4] = no test in this patent; mouse allergy test of urushiol derivatives cited (b4); cited from earlier work
[5] = cited master's thesis / KR 2009066135 A; cited from earlier work
[6] = tested on: food spoilage bacteria and pathogens [식품부패균 및 병원성균]; assay: Minimum inhibitory concentration, food spoilage bacteria and pathogens (9 strains); type: cell-based; conditions: liquid dilution 1000-4 μg/mL
S. aureus = assay: Minimum inhibitory concentration, Staphylococcus aureus; type: cell-based; conditions: 37 °C, 12-16 h, inoculum 10^5-10^7 cfu/mL, read-out: minimum inhibition concentration (MIC)
[7] = paper disc, 5 μmol per disc, CO2 incubator 37 °C, 10% CO2, 95% humidity

CCCCCCCCCCc1ccc(O)c(O)c1O [DG, 4-decyl-1,2,3-benzenetriol]
zone of inhibition at 5 µmol/disc [1, 7]: 7 mm

CCCCCCCCCCCCCCCCCCCCc1ccc(O)c(O)c1O [EG, 4-eicosyl-1,2,3-benzenetriol]
antimicrobial activity (growth inhibition zone), in words [2]: 전혀 항균활성을 보이지 않았다 | zone of inhibition at 5 µmol/disc [1, 7]: 0 mm

Oc1cccc(O)c1O [G, pyrogallol]
antimicrobial activity (growth inhibition zone), in words [2]: 매우 약한 항균활성을 보였으며 | zone of inhibition at 5 µmol/disc [1, 7]: 0 mm | inhibition of cancer cell growth, in words [3]: 폐암이나 위암을 일으키는 세포의 생장을 억제시키는 항암작용에도 효과가 있음

CCCCCc1cccc(O)c1O [PC, 3-pentylcatechol]
zone of inhibition at 5 µmol/disc [1, 7]: 31.5 ± 0.5 mm | allergenicity, in words [4]: 알러지 비유발성 | antimicrobial activity, in words [5]: 강한 항균활성을 보였던

CCCCCCCCCCCCCCCc1ccc(O)c(O)c1O [PDG, 4-pentadecyl-1,2,3-benzenetriol]
antimicrobial activity (growth inhibition zone), in words [2]: 전혀 항균활성을 보이지 않았다 | zone of inhibition at 5 µmol/disc [1]: 0 mm

CCCCCc1ccc(O)c(O)c1O [PG, 4-pentyl-1,2,3-benzenetriol]
antimicrobial activity (growth inhibition zone), in words [2]: 가장 강한 항균활성을 보였다; also recorded: PC와 비슷하거나 그보다 우수한 항균활성을 보였다 | zone of inhibition at 5 µmol/disc [1, 7]: 26.7 ± 0.6 mm | antimicrobial activity (growth inhibition zone), in words ([1]; paper disc, 5 μmol per disc, compared with other gallol derivatives): 가장 강한 항균활성을 보였다 | antimicrobial activity by minimum inhibition concentration, in words [6]: 최소저해농도 결과에 있어서 뛰어난 항균활성을 나타내지 않았다; also recorded: 측쇄가 없는 G보다는 PG가 더 낮은 농도에서 활성을 보였다 | allergenicity, in words [4]: 알러지 비유발성

CCn1cc(C(=O)O)c(=O)c2ccc(C)nc21 [날리디식 에시드, nalidixic acid]
zone of inhibition at 5 µmol/disc [1, 7]: 11 ± 0.2 mm

O=C(O)c1ccccc1 [벤조익 에시드, benzoic acid]
MIC (S. aureus): 250 µM (≈ 30.5 µg/mL)

CC1(C)S[C@@H]2[C@H](NC(=O)[C@H](N)c3ccccc3)C(=O)N2[C@H]1C(=O)O [앰피실린, ampicillin]
zone of inhibition at 5 µmol/disc [1, 7]: 7 mm

CC[C@H]1OC(=O)[C@H](C)[C@@H](O[C@H]2C[C@@](C)(OC)[C@@H](O)[C@H](C)O2)[C@H](C)[C@@H](O[C@@H]2O[C@H](C)C[C@H](N(C)C)[C@H]2O)[C@](C)(O)C[C@@H](C)C(=O)[C@H](C)[C@@H](O)[C@]1(C)O [에리스로마이신, erythromycin]
zone of inhibition at 5 µmol/disc [1, 7]: 7 mm

CN(C)[C@@H]1C(O)=C(C(N)=O)C(=O)[C@@]2(O)C(O)=C3C(=O)c4c(O)cccc4[C@@](C)(O)[C@H]3C[C@@H]12 [테트라사이클린, tetracycline]
zone of inhibition at 5 µmol/disc [1, 7]: 9 mm
